The target in experiment [1] is T1, full length mouse TREX1 (Mus musculus, UniProt Q91XB0).
T1 construct: N-terminally His-Tev tagged full length mouse TREX1; made in house; host or cells: E. coli
T1 sequence (Q91XB0 1-314): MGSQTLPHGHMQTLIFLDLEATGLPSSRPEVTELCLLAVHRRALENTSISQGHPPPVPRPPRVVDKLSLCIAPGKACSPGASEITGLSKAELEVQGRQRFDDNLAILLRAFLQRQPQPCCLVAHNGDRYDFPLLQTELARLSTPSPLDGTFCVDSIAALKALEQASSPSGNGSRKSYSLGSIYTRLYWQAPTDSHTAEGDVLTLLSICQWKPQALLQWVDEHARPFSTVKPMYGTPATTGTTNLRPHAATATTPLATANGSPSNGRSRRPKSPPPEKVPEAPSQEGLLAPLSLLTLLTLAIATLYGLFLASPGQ
The experiment in a line: mTREX1 Biochemical Assay (fluorescence, dsDNA substrate degradation). To be noted: biochemical, read-out: mTREX1 IC50. In a few lines:
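Reaction run 18 h at 25° C. with 60 nM TEX615/quencher-labelled dsDNA and 6 pM mouse TREX1 in Tris buffer (pH 7.4, 5 mM MgCl2, 1.0% DMSO), enzyme having sat 4 h with compound across 10 concentrations. EDTA quench; substrate degradation measured as fluorescence increase.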

Experiment [2] concerns the target T2, full length human TREX1 (Homo sapiens, UniProt Q9NSU2).
T2 construct: N-terminally His-Tev tagged full length human TREX1; made in house; host or cells: E. coli
T2 sequence (Q9NSU2 1-314): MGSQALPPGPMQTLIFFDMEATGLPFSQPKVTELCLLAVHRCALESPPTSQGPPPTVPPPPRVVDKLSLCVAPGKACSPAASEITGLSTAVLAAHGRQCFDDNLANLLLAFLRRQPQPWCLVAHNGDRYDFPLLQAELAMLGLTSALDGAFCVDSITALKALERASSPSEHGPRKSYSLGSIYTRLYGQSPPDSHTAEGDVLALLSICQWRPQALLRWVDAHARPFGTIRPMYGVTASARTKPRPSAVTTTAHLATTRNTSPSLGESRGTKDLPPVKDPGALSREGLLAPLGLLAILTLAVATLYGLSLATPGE
The experiment can be described thus: hTREX1 Biochemical Assay (fluorescence, dsDNA substrate degradation). To be noted: biochemical, read-out: hTREX1 IC50. The gist of the method: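 Fluorescence rises as enzyme degrades a quenched TEX615-labelled dsDNA substrate (60 nM) in 50 mM Tris, 150 mM NaCl, 5 mM MgCl2, pH 7.4. Full-length His-Tev-tagged human TREX1, 4 pM, sits with compound 4 hours at 25° C before substrate; reaction 18 hours, stopped with EDTA.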

By IC50 is commonly meant the concentration needed to halve the response being measured.

SMILES strings stand for the structures. A value given as a limit tells only on which side of the number the result lay.

In the case of `CC(c1nc(C(=O)Nc2cnoc2)c(O)c(=O)n1C)C(c1cnn(C)c1)c1ccccc1C#N` (single isomer, unassigned) [Example 2 D1E1], the IC50 in experiment [1] is 1 to 10 nM; in experiment [2], below 1 nM.
Turning to `CC(c1nc(C(=O)Nc2cnoc2)c(O)c(=O)n1C)C(c1ccccc1C#N)c1cn(C)nc1C#N` (single isomer, unassigned) [Example 10 D1E1], the IC50 in experiment [1] and in experiment [2] was below 1 nM throughout.
Take `CCn1cc(C(c2ccccc2C#N)C(C)c2nc(C(=O)Nc3cnoc3)c(O)c(=O)n2C)cn1` (single isomer, unassigned) [Example 13 D1E1]: the IC50 in experiment [1] and in experiment [2] was below 1 nM throughout.
`CC(c1nc(C(=O)Nc2cnoc2)c(O)c(=O)n1C)C(c1cnn(C)c1)c1cc(F)ccc1C#N` (single isomer, unassigned) [Example 14 D1E2]: the IC50 in experiment [1] is 1 to 10 nM; in experiment [2], below 1 nM.
In the case of `CCn1cc(C(c2ccc(F)cc2C#N)C(C)c2nc(C(=O)Nc3cnoc3)c(O)c(=O)n2C)cn1` (single isomer, unassigned) [Example 16 D1E1], the IC50 in experiment [1] and in experiment [2] was below 1 nM each time.
As for `CCn1cc(C(c2cc(F)ccc2C#N)C(C)c2nc(C(=O)Nc3cnoc3)c(O)c(=O)n2C)cn1` (single isomer, unassigned) [Example 17 D1E2], the IC50 in experiment [1] and in experiment [2] was below 1 nM in each case.
Turning to `CC(c1nc(C(=O)Nc2cnoc2)c(O)c(=O)n1C)C(c1cnn(CC(F)(F)F)c1)c1ccccc1C#N` (single isomer, unassigned) [Example 22 D1E1], the values for the IC50 in experiment [1] and in experiment [2] were 1 to 10 nM and below 1 nM, respectively.
`CC(c1nc(C(=O)Nc2cnoc2)c(O)c(=O)n1C)C(c1cnn(CC2CC2)c1)c1ccccc1C#N` (single isomer, unassigned) [Example 23 D1E2]: the IC50 in experiment [1] is 1 to 10 nM; in experiment [2], below 1 nM.
The matching figures for `CC(c1nc(C(=O)Nc2cnoc2)c(O)c(=O)n1C)C(c1cnn(C)c1)c1cc(Cl)ccc1C#N` (single isomer, unassigned) [Example 26 D1E2]: 1 to 10 nM and below 1 nM.
Turning to `CC(c1nc(C(=O)Nc2cnoc2)c(O)c(=O)n1C)C(c1cnn(C(F)F)c1)c1ccccc1C#N` (single isomer, unassigned) [Example 38 D1E1], the IC50 in experiment [1] and in experiment [2] was below 1 nM each time.
As to `Cc1cncc(C(c2ccccc2C#N)C(C)c2nc(C(=O)Nc3cnoc3)c(O)c(=O)n2C)n1` (single isomer, unassigned) [Example 53 D1E2], the IC50 in experiment [1] was 1 to 10 nM; in experiment [2] it was below 1 nM.
Take `Cc1nn(C)cc1C(c1cc(F)ccc1C#N)C(C)c1nc(C(=O)Nc2cnoc2)c(O)c(=O)n1C` (single isomer, unassigned) [Example 57 D1E2]: the IC50 is 1 to 10 nM in experiment [1] and below 1 nM in experiment [2].
As to `CC(c1nc(C(=O)Nc2cnoc2)c(O)c(=O)n1C)C(c1cnn(C)c1)c1ccccc1Cl` (single isomer, unassigned) [Example 77 D1E1], the IC50 in experiment [1] was 1 to 10 nM; in experiment [2], below 1 nM.
In the case of `Cc1nn(C)c(C)c1C(c1ccccc1C#N)C(C)c1nc(C(=O)Nc2cnoc2)c(O)c(=O)n1C` (single isomer, unassigned) [Example 78 D1E1], the values for the IC50 in experiment [1] and in experiment [2] were 1 to 10 nM and below 1 nM, respectively.
For the compound `Cc1ncc(C(c2ccccc2C#N)C(C)c2nc(C(=O)Nc3cnoc3)c(O)c(=O)n2C)nc1C` (single isomer, unassigned) [Example 81 D1E2], the IC50 in experiment [1] is 1 to 10 nM; in experiment [2], below 1 nM.
For `CC(c1nc(C(=O)Nc2cnoc2)c(O)c(=O)n1C)C(c1ccccc1C#N)c1cn(C)nc1F` (single isomer, unassigned) [Example 91 D1E1] the same measures were below 1 nM and below 1 nM.
As to `CC(c1nc(C(=O)Nc2cnoc2)c(O)c(=O)n1C)C(c1cnn(C(C)C)c1)c1ccccc1C#N` (single isomer, unassigned) [Example 105 D1E2], the half-inhibitory concentration (IC50) in experiment [1] was 1 to 10 nM; in experiment [2], below 1 nM.
The matching figures for `Cc1cc(C(c2cc(F)ccc2C#N)C(C)c2nc(C(=O)Nc3cnoc3)c(O)c(=O)n2C)n(C)n1` (single isomer, unassigned) [Example 111 D1E2]: 1 to 10 nM and below 1 nM.
For `Cc1cnc(C(c2cc(F)ccc2C#N)C(C)c2nc(C(=O)Nc3cnoc3)c(O)c(=O)n2C)cn1` (single isomer, unassigned) [Example 115 D1E2] the same measures were 1 to 10 nM and below 1 nM.
Take `Cc1nc(C)c(C(c2ccccc2C#N)C(C)c2nc(C(=O)Nc3cnoc3)c(O)c(=O)n2C)nc1C` (single isomer, unassigned) [Example 122 D1E1]: the IC50 in experiment [1] and in experiment [2] was below 1 nM in each case.
As for `Cc1ncc(C(c2cc(F)ccc2C#N)C(C)c2nc(C(=O)Nc3cnoc3)c(O)c(=O)n2C)nc1C` (single isomer, unassigned) [Example 124 D1E2], the IC50 is 1 to 10 nM in experiment [1] and below 1 nM in experiment [2].
For `Cc1ncc(C(c2ccccc2Cl)C(C)c2nc(C(=O)Nc3cnoc3)c(O)c(=O)n2C)nc1C` (single isomer, unassigned) [Example 125 D1E2] the same measures were 1 to 10 nM and below 1 nM.
In the case of `CCn1c(C(C)C(c2cnn(C)c2)c2ccccc2C#N)nc(C(=O)Nc2cnoc2)c(O)c1=O` (single isomer, unassigned) [Example 149 D1E2], the IC50 in experiment [1] was 1 to 10 nM; in experiment [2] it was below 1 nM.
Regarding `C[C@H](c1nc(C(=O)Nc2cnoc2)c(O)c(=O)n1C)[C@@H](c1cc(F)ccc1C#N)c1cn(C)nc1C#N` [Example 59 D1E2], the IC50 in experiment [1] and in experiment [2] was below 1 nM each time.

(Values after patent US20240246946A1, “MODULATORS OF TREX1” (Constellation Pharmaceuticals, Inc., priority 2021, published 2024).)
